Data reported in patent publication US20240108598A1, “Danegaptide for Use in the Treatment or Prevention of a Kidney Disease” (CIANA THERAPEUTICS APS, priority 2021, published 2024).

Key:
Cx43 hemichannels [1] = target: T1, Cx43 hemichannels (Homo sapiens, UniProt P17302); assay: Carboxyfluorescein dye uptake assay in HK2 cells; format: cell-based; details: for carboxyfluorescein dye uptake, of control: 48 h
T1 construct: host or cells: HK2 human kidney proximal tubule epithelial cell line
Procedure: (§1) In panel A, HK2 cells were cultured in low glucose (5 mM) with/without TGFβ1 (10 ng/ml)±danegaptide (50, 100 and 1000 nM) for 48 h and cell viability assessed. Results are presented as mean±SEM, n=3. […] Addition of danegaptide (50 or 100 nM) reduced dye uptake, returning fluorescence intensity to control levels. Intensity is expressed as percentage compared to low glucose control and is representative of 3 separate experiments. Data is presented as mean±SEM, n=3 with key significances indicated (**P<0.01, ***P<0.001); one-way ANOVA and Tukey's post-test).
HK2 and HPTEC cells were seeded onto fluorodishes (22 mm diameter) and cultured in low glucose DMEM/F12 (5 mmol/1) for 48 h. Following an overnight serum-starvation, cells were incubated with TGFβ1 (10 ng/ml)±danegaptide (100 nM) for 48 h. For subsequent steps, a balanced salt solution (BSS, pH7.0) was used, comprising of NaCl (137 mM), KCl (5.4 mM), MgSO4 (0.8 mM), Na2HPO4 (0.3 mM), KH2PO4 (0.4 mM), NaHCO3 (4.2 mM), HEPES (10 mM) and glucose (5 mM). To induce dye uptake, cells were exposed to Ca^2+-free BSS (zero CaCl2+EGTA (1 mM)) plus carboxyfluorescein (200 μM) for 10 min, followed by a 10 min period in Ca^2+-containing BSS (1.3 mM) plus carboxyfluorescein (200 μM). Dishes were subsequently washed with Ca^2+-containing BSS (12 mls). Images were acquired with a Cool Snap HQ CCD camera (Roper Scientific) and Metamorph software (Universal Imaging Corp., Marlow, Bucks, UK). ImageJ was used to quantify dye uptake, where a region of interest (ROI) was drawn around each cell (approx. 10-15 cells/dish) and mean pixel intensity measured. A background fluorescence value was subtracted from each ROI.

primary hPTECs [2] = assay: qPCR of cell cycle and reno-protective marker mRNA; format: cell-based, human; details: TGFβ1 10 ng/mL + danegaptide 100 nM, 12 h
Procedure: Primary hPTECs were cultured in low (5 mM) glucose±TGFβ1 (10 ng/mL)±danegaptide (100 nM) for 12 h. […] Danegaptide (100 nM) negated the increase in p16, p21, cyclinD1 (▴▴▴P<0.001; mean±SEM, n=3) and partly reversed the TGFβ1-evoked change in Klotho.
To determine if danegaptide can negate hemichannel-mediated regulation of common cell cycle and reno-protective markers, hPTECs were incubated with TGFβ1 (10 ng/mL)±danegaptide (100 nM) for 12 h and expression of candidate gene mRNA assessed through qPCR analysis.
RNA was extracted using an RNeasy mini kit (QIAGEN) and reverse transcribed (Invitrogen). Real-time PCR (SYBR GreenER, Invitrogen) was performed using a StepOne Plus instrument (Applied Biosystems Inc, Foster City, CA). cDNA expression was obtained by comparing to a standard curve of serially-diluted cDNA. The following primers were used: p16 (forward: […], reverse: […]), p21 (forward: […], reverse: […]), cyclinD1 (forward: […], reverse: […]), Klotho (forward: […], reverse: […]). Melt curve analysis confirmed primer specificity and checked for potential contamination.

primary hPTECs [3] = assay: Inflammation antibody array, cell lysates (Table 1); format: cell-based, human; details: hPTEC lysate; TGF-β1 10 ng/mL + DG 100 nM, 48 h
Description: An inflammation antibody array was used to assess regulation of 31 candidate inflammatory proteins in cell lysates from hPTEC cells treated with TGFβ1±danegaptide. Results are representative of 3 separate experiments and presented as mean±SEM, n=3 with key significances indicated (*P<0.05, **P<0.01, ***P<0.001; one-way ANOVA and Tukey's post-test).
A proteome profiler array (Human Cytokine Array Kit from R&D Systems, Oxfordshire, UK) was used, to determine if danegaptide negates TGFβ1-induced changes in expression and secretion of key pro-inflammatory mediators. Primary hPTECs were cultured as described above and treated with TGFβ1 (10 ng/mL)±danegaptide (100 nM) for 48 h.

Cx43 hemichannels [4] = target: T1, Cx43 hemichannels; assay: Carboxyfluorescein dye uptake assay in primary hPTECs; format: cell-based; details: TGFβ1 10 ng/mL + danegaptide 100 nM, 48 h
Procedure: as §1
HK2 and HPTEC cells were seeded onto fluorodishes (22 mm diameter) and cultured in low glucose DMEM/F12 (5 mmol/1) for 48 h. Following an overnight serum-starvation, cells were incubated with TGFβ1 (10 ng/ml)±danegaptide (100 nM) for 48 h. For subsequent steps, a balanced salt solution (BSS, pH7.0) was used, comprising of NaCl (137 mM), KCl (5.4 mM), MgSO4 (0.8 mM), Na2HPO4 (0.3 mM), KH2PO4 (0.4 mM), NaHCO3 (4.2 mM), HEPES (10 mM) and glucose (5 mM). […] ImageJ was used to quantify dye uptake, where a region of interest (ROI) was drawn around each cell (approx. 10-15 cells/dish) and mean pixel intensity measured. A background fluorescence value was subtracted from each ROI.

HK2 cells = assay: MTT assay (cell viability); format: cell-based, human; details: 48 h
Procedure: HK2 cells were cultured in low glucose (5 mM) for 48 h, prior to being serum-starved overnight and subsequently treated with TGFβ1 (10 ng/mL)±danegaptide (50 nM-1 μM) for 48 h (FIG. 1A, n=3).
The 3-(4,5-Dimethylthiazol-2-yl)-2,5-diphenyltetrazolium bromide (MTT) assay was performed as known in the art to assess the cytotoxic effects of danegaptide on cell proliferation. HK2 cells were seeded in 96-well plates and cultured in low glucose DMEM/F12 (5 mM) for 48 h, prior to overnight serum-starvation, then subsequently stimulated for 48 h with TGFβ1 (10 ng/ml)±danegaptide (50-1000 nM). Colourmetric measurement of formazan production corresponds to the number of viable cells.

[5] = TGFβ1 10 ng/mL + danegaptide 50 nM
[6] = TGFβ1 10 ng/mL + danegaptide 100 nM

T1 sequence (P17302 whole entry): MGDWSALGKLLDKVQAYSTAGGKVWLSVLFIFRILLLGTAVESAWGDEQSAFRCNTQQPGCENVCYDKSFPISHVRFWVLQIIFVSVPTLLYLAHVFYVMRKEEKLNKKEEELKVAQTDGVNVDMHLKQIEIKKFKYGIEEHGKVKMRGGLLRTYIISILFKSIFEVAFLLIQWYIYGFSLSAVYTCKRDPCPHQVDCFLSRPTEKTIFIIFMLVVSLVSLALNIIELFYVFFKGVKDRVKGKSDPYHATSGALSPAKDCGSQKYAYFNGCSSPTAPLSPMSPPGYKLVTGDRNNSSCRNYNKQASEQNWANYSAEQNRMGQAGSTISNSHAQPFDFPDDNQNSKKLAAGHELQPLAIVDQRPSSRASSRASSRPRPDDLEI

For `NCC(=O)N1C[C@H](NC(=O)c2ccccc2)C[C@H]1C(=O)O` [danegaptide, (2S,4R)-1-(2-aminoacetyl)-4-benzamidopyrrolidine2-carboxylic acid], the “carboxyfluorescein dye uptake, of control” value (Cx43 hemichannels [1]; [5]) was 165.5±17.9%, the “carboxyfluorescein dye uptake, of control” value (Cx43 hemichannels [1]; [6]) was 147.6±18.1% and the carboxyfluorescein dye uptake (Cx43 hemichannels [1]; danegaptide alone) was “did not alter dye uptake”. For the same compound, the “concentration of optimal inhibition of carboxyfluorescein dye uptake” value (Cx43 hemichannels [1]; dose range 10 to 1000 nM tested) was 50 to 100 nM, the “Klotho mRNA expression, of control” value (primary hPTECs [2]) was 59.9±11.7% and the “cyclinD1 mRNA expression, of control” value (primary hPTECs [2]) was 132.9±15.0%. The “p16 mRNA expression, of control” value (primary hPTECs [2]) was 193±18.5%, the “p21 mRNA expression, of control” value (primary hPTECs [2]) was 142.2±6.2% and the “Angiogenin in lysate (% compared to control)” value (primary hPTECs [3]) was 100 ± 20.3%. The “Cystatin C in lysate (% compared to control)” value (primary hPTECs [3]) was 123 ± 14.3%, the “DPPIV in lysate (% compared to control)” value (primary hPTECs [3]) was 187 ± 25.2% and the “ENA 78 in lysate (% compared to control)” value (primary hPTECs [3]) was 97 ± 18.2%. For the same compound, the “Endoglin in lysate (% compared to control)” value (primary hPTECs [3]) was 72.3 ± 8.9^ %, the “FGF7 in lysate (% compared to control)” value (primary hPTECs [3]) was 106 ± 15.2% and the “Flt 3 Ligand in lysate (% compared to control)” value (primary hPTECs [3]) was 208 ± 31.4%. The “G-CSF in lysate (% compared to control)” value (primary hPTECs [3]) was 126 ± 4.7%, the “GM-CSF in lysate (% compared to control)” value (primary hPTECs [3]) was 136 ± 11.6% and the “HGF in lysate (% compared to control)” value (primary hPTECs [3]) was 104.0 ± 9.0%. The “ICAM 1 in lysate (% compared to control)” value (primary hPTECs [3]) was 80 ± 28.7%, the “IFNg in lysate (% compared to control)” value (primary hPTECs [3]) was 112 ± 12.7% and the “IGFBP2 in lysate (% compared to control)” value (primary hPTECs [3]) was 334 ± 66.1%. The “IGFBP3 in lysate (% compared to control)” value (primary hPTECs [3]) was 97 ± 28.5%, the “IL1A in lysate (% compared to control)” value (primary hPTECs [3]) was 80 ± 18.8% and the “IL3 in lysate (% compared to control)” value (primary hPTECs [3]) was 129 ± 15.7%. The “IL8 in lysate (% compared to control)” value (primary hPTECs [3]) was 122 ± 5.2%, the “IL12 p70 in lysate (% compared to control)” value (primary hPTECs [3]) was 97 ± 4.6% and the “IL13 in lysate (% compared to control)” value (primary hPTECs [3]) was 150 ± 46.0%. The “Kallikrein 3 in lysate (% compared to control)” value (primary hPTECs [3]) was 67 ± 14.3%, the “LIF in lysate (% compared to control)” value (primary hPTECs [3]) was 225 ± 82^ % and the “MCP-1 in lysate (% compared to control)” value (primary hPTECs [3]) was 97.6 ± 13.9%. The “MMP9 in lysate (% compared to control)” value (primary hPTECs [3]) was 95 ± 10.6%, the “PDGF-AA/BB in lysate (% compared to control)” value (primary hPTECs [3]) was 95.2 ± 14.6% and the “RAGE in lysate (% compared to control)” value (primary hPTECs [3]) was 105 ± 9.2%. The “RANTES in lysate (% compared to control)” value (primary hPTECs [3]) was 104 ± 15.2%, the “Serpin E1 in lysate (% compared to control)” value (primary hPTECs [3]) was 148 ± 28.5% and the “TFF3 in lysate (% compared to control)” value (primary hPTECs [3]) was 132 ± 3.9%. The “TNF-α in lysate (% compared to control)” value (primary hPTECs [3]) was 144 ± 18.5%, the “Thrombospondin-1 in lysate (% compared to control)” value (primary hPTECs [3]) was 100 ± 19.8% and the “VEGF in lysate (% compared to control)” value (primary hPTECs [3]) was 101 ± 16.4%. The “carboxyfluorescein dye uptake, of control” value (Cx43 hemichannels [4]) was 145±19.7%, the “cell viability (MTT) as compared to control” value (HK2 cells; [5]) was 104.1±2.2% and the “cell viability (MTT) as compared to control” value (HK2 cells; [6]) was 93.4±1.6%. The “cell viability (MTT) as compared to control” value (HK2 cells; TGFβ1 10 ng/mL + danegaptide 1 μM) was 89.3±3.7%, the “cell viability (MTT) as compared to control” value (HK2 cells; danegaptide alone 50 nM) was 95.2±7% and the “cell viability (MTT) as compared to control” value (HK2 cells; danegaptide alone 100 nM) was 103±5.7%. The “cell viability (MTT) as compared to control” value (HK2 cells; danegaptide alone 1 μM) was 96.6±5.3%.
